According to patent publication US8697641B2, “4-amino-4-oxobutanoyl peptide cyclic analogues, inhibitors of viral replication” (Achillion Pharmaceuticals, Inc., priority 2008, dated 2014):

System: Hepatitis C replicon
Assay: HCV replicon assay (NPT ELISA readout) in Huh-7 replicon-containing cells
Type: cell-based, Hepatitis C virus
Settings: Hepatitis C virus, 72 h; HCV replicon in Huh-7 cells, three days incubation
Description: Compounds claimed herein are tested for the ability to inhibit viral replication of the Hepatitis C replicon in cultured cells in which the HCV replicon construct has been incorporated. The HCV replicon system was described by Bartenschlager, et. al (Science, 285, pp. 110-113 (1999)). The replicon system is predictive of in vivo anti-HCV activity; compounds that are active in humans uniformly evidence activity in the replicon assay.
In this assay HCV replicon containing cells are treated with different concentrations of the test compound to ascertain the ability of the test compound to suppress replication of the HCV replicon. As a positive control, HCV replicon-containing cells are treated with different concentrations of interferon alpha, a known inhibitor of HCV replication. The replicon assay system includes Neomycin Phosphotransferase (NPT) as a component of the replicon itself in order to detect the transcription of replicon gene products in the host cell. Cells in which the HCV replicon is actively replicating have high levels of NPT; the level of NPT is proportional to HCV replication. […] The NPT level of each sample is measured using a captured ELISA.
A protocol for testing compounds for the ability to inhibit viral replication of the Hepatitis C replicon cultured cells in which the replicon construct has been incorporated, follows.
The HCV replicon contains, 5′-3′, the HCV-IRES, the neomycin phosphotransferase (neo) gene, the IRES of encephalomyocarditis virus, which directs translation of HCV sequences NS3 to NS5B, and the 3′-NTR. The sequence of the HCV replicon has been deposited in GenBank (Accession no. AJ242652).
The replicon is transfected into Huh-7 cells using standard methods such as electroporation.
The equipment and materials include, but are not limited to, Huh-7 HCV replicon-containing cells, maintenance media (DMEM (Dulbecco's modified Eagle media) supplemented with 10% FBS, L-glutamine, non-essential amino acids, penicillin (100 units/ml), streptomycin (100 micrograms/ml), and 500 micrograms/ml of Geneticin (G418), screening media (DMEM supplemented with 10% FBS, L-glutamine, non-essential amino acids, penicillin (100 units/ml) and streptomycin (100 micrograms/ml)), 96 well tissue culture plates (flat bottom), 96 well plates (U bottom for drug dilution), Interferon alpha for positive control, fixation reagent (such as methanol:acetone), primary antibody (rabbit anti-NPTII), secondary antibody: Eu-N1 l, and enhancement solution.
The cells are then seeded onto 96-well plates at a density of 6000-7500 cells/100 microliters/well (6-7.5×10^5 cells/10 ml/plate). The plates are then incubated at 37° C. in a 5% CO2 incubator.
HCV replicon-containing cells are rinsed with once PBS once; 2 mls of trypsin are then added. Cells are incubated at 37° C. in a 5% CO2 incubator for 3-5 minutes. 10 mls of complete medium is added to stop the reaction. Cells are blown gently, put into a 15 ml tube, and spun at 1200 rpm for four minutes. The trypsin/medium solution is removed and 5 mls of medium (500 ml DMEM (high glucose)) from BRL catalog #12430-054; 50 mls 10% FBS, 5% Geneticin G418 (50 mg/ml, BRL catalog #10131-035), 5 ml MEM non-essential amino acids (100×BRL #11140-050) and 5 ml pen-strep (BRL #15140-148) is added. The cells and media are mixed carefully
Cells are plated with screening medium (500 ml DMEM (BRL #21063-029), 50 ml FBS (BRL #10082-147) and 5 ml MEM non-essential amino acid (BRL #11140-050) at 6000-7500 fcells/100 μl/well of 96 well plate (6-7.5×10^5 cells/10 ml/plate). Plates are placed into 37° C. 5% CO2 incubator overnight.
The following morning, drugs (test compounds or interferon alpha) are diluted in 96 well U bottom plates with media or DMSO/media, depending on the final concentration chosen for screening. Generally for 6 concentrations of each test compounds ranging from 10 micromolar to 0.03 micromolar are applied. […]

Structure (SMILES) | EC50 [nM]
COc1ccc2c(O[C@@H]3C[C@H]4C(=O)N[C@]5(C(=O)NS(=O)(=O)C6CC6)C[C@H]5/C=C\CCCCC[C@H](CC(=O)N5CC(C)CC(C)C5)C(=O)N4C3)cc(-c3ccccc3)nc2c1 (stereo partly drawn) [Compound 68, (2R,6R,13aS, 14aR,16aS,Z)-N-(cyclopropylsulfonyl)-6-(2-(3,5-dimethylpiperidin-1-yl)-2-oxoethyl)-2-(7-methoxy-2-phenylquinolin-4-yloxy)-5,16-dioxo-1,2,3,5,6,7,8,9,10,11, 13a,14,14a,15,16,16a-hexadecahydrocyclopropa [e]pyrrolo[1,2-a][1,4] diazacyclopentadecine-14a-carboxamide] | < 1000
COc1ccc2c(O[C@@H]3C[C@H]4C(=O)N[C@]5(C(=O)NS(=O)(=O)C6CC6)C[C@H]5/C=C\CCCCC[C@H](CC(=O)N5C(C)CCCC5C)C(=O)N4C3)cc(-c3ccccc3)nc2c1 (stereo partly drawn) [Compound 69, (2R,6R,13aS, 14aR,16aS,Z)-N-(cyclopropylsulfonyl)-6-(2-(2,6-dimethylpiperidin-1-yl)-2-oxoethyl)-2-(7-methoxy-2-phenylquinolin-4-yloxy)-5,16-dioxo-1,2,3,5,6,7,8,9,10,11, 13a,14,14a,15,16,16a-hexadecahydrocyclopropa [e]pyrrolo[1,2-a][1,4] diazacyclopentadecine-14a-carboxamide] | < 1000
COc1ccc2c(O[C@@H]3C[C@H]4C(=O)N[C@]5(C(=O)NS(=O)(=O)C6CC6)C[C@H]5/C=C\CCCCC[C@H](CC(=O)N5CCC(F)CC5)C(=O)N4C3)cc(-c3ccccc3)nc2c1 [Compound 70, (2R,6R,13aS, 14aR,16aS,Z)-N-(cyclopropylsulfonyl)-6-(2-(4-fluoropiperidin-1-yl)-2-oxoethyl)-2-(7-methoxy-2-phenylquinolin-4-yloxy)-5,16-dioxo-1,2,3,5,6,7,8,9,10,11, 13a,14,14a,15,16,16a-hexadecahydrocyclopropa [e]pyrrolo[1,2-a][1,4] diazacyclopentadecine-14a-carboxamide] | < 1000
COc1ccc2c(O[C@@H]3C[C@H]4C(=O)N[C@]5(C(=O)NS(=O)(=O)C6CC6)C[C@H]5/C=C\CCCCC[C@H](CC(=O)N5CCCC(C(F)(F)F)C5)C(=O)N4C3)cc(-c3ccccc3)nc2c1 (stereo partly drawn) [Compound 71, (2R,6R,13aS, 14aR,16aS,Z)-N-(cyclopropylsulfonyl)-2-(7-methoxy-2-phenylquinolin-4-yloxy)-5,16-dioxo-6-(2-oxo-2-(3-(trifluoromethyl)piperidin-1-yl)ethyl)-1,2,3,5,6,7,8,9,10,11, 13a,14,14a,15,16,16a-hexadecahydrocyclopropa [e]pyrrolo[1,2-a][1,4] diazacyclopentadecine-14a-carboxamide] | < 1000
COc1ccc2c(O[C@@H]3C[C@H]4C(=O)N[C@]5(C(=O)NS(=O)(=O)C6CC6)C[C@H]5/C=C\CCCCC[C@H](CC(=O)NC(C)(C)C)C(=O)N4C3)cc(-c3ccccc3)nc2c1 [Compound 72, (2R,6R,13aS,14aR, 16aS,Z)-6-(2-(tert-butylamino)-2-oxoethyl)-N-(cyclopropylsulfonyl)-2-(7-methoxy-2-phenylquinolin-4-yloxy)-5,16-dioxo-1,2,3,5,6,7,8,9,10,11, 13a,14,14a,15,16,16a-hexadecahydrocyclopropa [e]pyrrolo[1,2-a][1,4] diazacyclopentadecine-14a-carboxamide] | < 1000
COc1ccc2c(O[C@@H]3C[C@H]4C(=O)N[C@]5(C(=O)NS(=O)(=O)C6CC6)C[C@H]5/C=C\CCCCC[C@H](CC(=O)NC5CCCC5)C(=O)N4C3)cc(-c3ccccc3)nc2c1 [Compound 73, (2R,6R,13aS,14aR, 16aS,Z)-6-(2-(cyclopentylamino)-2-oxoethyl)-N-(cyclopropylsulfonyl)-2-(7-methoxy-2-phenylquinolin-4-yloxy)-5,16-dioxo-1,2,3,5,6,7,8,9,10,11, 13a,14,14a,15,16,16a-hexadecahydrocyclopropa [e]pyrrolo[1,2-a][1,4] diazacyclopentadecine-14a-carboxamide] | < 1000
COc1ccc2c(O[C@@H]3C[C@H]4C(=O)N[C@]5(C(=O)NS(=O)(=O)C6CC6)C[C@H]5/C=C\CCCCC[C@H](CC(=O)N5CCCCC5)C(=O)N4C3)cc(-c3ccccn3)nc2c1 [Compound 74, (2R,6R,13aS, 14aR,16aS,Z)-N-(cyclopropylsulfonyl)-2-(7-methoxy-2-(pyridin-2-yl)quinolin-4-yloxy)-5,16-dioxo-6-(2-oxo-2-(piperidin-1-yl)ethyl)-1,2,3,5,6,7,8,9,10,11, 13a,14,14a,15,16,16a-hexadecahydrocyclopropa [e]pyrrolo[1,2-a][1,4] diazacyclopentadecine-14a-carboxamide] | < 1000
COc1ccc2c(O[C@@H]3C[C@H]4C(=O)N[C@]5(C(=O)NS(=O)(=O)C6CC6)C[C@H]5/C=C\CCCCC[C@H](CC(=O)N5CCOC(C)C5)C(=O)N4C3)cc(-c3ccccc3)nc2c1 (stereo partly drawn) [Compound 75, (2R,6R,13aS, 14aR,16aS,Z)-N-(cyclopropylsulfonyl)-2-(7-methoxy-2-phenylquinolin-4-yloxy)-6-(2-(2-methylmorpholino)-2-oxoethyl)-5,16-dioxo-1,2,3,5,6,7,8,9,10,11, 13a,14,14a,15,16,16a-hexadecahydrocyclopropa [e]pyrrolo[1,2-a][1,4] diazacyclopentadecine-14a-carboxamide] | < 1000
COc1ccc2c(O[C@@H]3C[C@H]4C(=O)N[C@]5(C(=O)NS(=O)(=O)C6CC6)C[C@H]5/C=C\CCCCC[C@H](CC(=O)N5CC(C)OC(C)C5)C(=O)N4C3)cc(-c3ccccc3)nc2c1 (stereo partly drawn) [Compound 76, (2R,6R,13aS, 14aR,16aS,Z)-N-(cyclopropylsulfonyl)-6-(2-(2,6-dimethylmorpholino)-2-oxoethyl)-2-(7-methoxy-2-phenylquinolin-4-yloxy)-5,16-dioxo-1,2,3,5,6,7,8,9,10,11, 13a,14,14a,15,16,16a-hexadecahydrocyclopropa [e]pyrrolo[1,2-a][1,4] diazacyclopentadecine-14a-carboxamide] | < 1000
COc1ccc2c(O[C@@H]3C[C@H]4C(=O)N[C@]5(C(=O)NS(=O)(=O)C6CC6)C[C@H]5/C=C\CCCCC[C@H](CC(=O)N5CC6CC5CO6)C(=O)N4C3)cc(-c3ccccc3)nc2c1 (stereo partly drawn) [Compound 77, (2R,6R,13aS,14aR, 16aS,Z)-6-(2-(2-oxa-5-azabicyclo[2.2.1]heptan-5-yl)-2-oxoethyl)-N-(cyclopropylsulfonyl)-2-(7-methoxy-2-phenylquinolin-4-yloxy)-5,16-dioxo-1,2,3,5,6,7,8,9,10,11, 13a,14,14a,15,16,16a-hexadecahydrocyclopropa [e]pyrrolo[1,2-a][1,4] diazacyclopentadecine-14a-carboxamide] | < 1000
COc1ccc2c(O[C@@H]3C[C@H]4C(=O)N[C@]5(C(=O)NS(=O)(=O)C6CC6)C[C@H]5/C=C\CCCCC[C@H](CC(=O)N5CCCC(C)C5)C(=O)N4C3)cc(-c3ccccc3)nc2c1 (stereo partly drawn) [Compound 78, (2R,6R,13aS, 14aR,16aS,Z)-N-(cyclopropylsulfonyl)-2-(7-methoxy-2-phenylquinolin-4-yloxy)-6-(2-(3-methylpiperidin-1-yl)-2-oxoethyl)-5,16-dioxo-1,2,3,5,6,7,8,9,10,11, 13a,14,14a,15,16,16a-hexadecahydrocyclopropa [e]pyrrolo[1,2-a][1,4] diazacyclopentadecine-14a-carboxamide] | < 1000
